Experimental data reported in paper PMC5612656, “In vitro and in vivo effects of 2,4 diaminoquinazoline inhibitors of the decapping scavenger enzyme DcpS: Context-specific modulation of SMN transcript levels” (PLoS ONE, 2017).

Columns and labels:
2B/- SMA mice = experiment: Combined 55° negative geotaxis/climb test in 2B/- SMA mice; type: in vivo, mouse
[1] = test system: Renilla luciferase driven by the CMV promoter; experiment: Reporter gene assay, CMV-driven Renilla luciferase; type: cell-based; conditions: 24 hrs
Method: The SMN2 reporter cell line was cultured in high-glucose DMEM supplemented with 10% (v/v) fetal bovine serum (FBS) and 1X Penicillin/Streptomycin. Reporter cells media was supplemented with hygromycin during maintenance. All cells were maintained at 37°C and […]. After seeding in 96-well white tissue culture plates at 25,000 per well, cells were incubated overnight before being exposed to different doses of compounds or DMSO for 24 hrs. The final DMSO concentration was kept constant at 0.1% (v/v). Firefly and renilla luciferase expression were assayed with DualGlo (Promega E2920) and measured on a PHERAstar FS microplate reader (BMG Labtech). Relative light units are normalized to DMSO control and expressed as a percentage.

[2] = test system: SMN transcripts in SMA-derived lymphoblasts; experiment: SMN transcripts by ddPCR in SMA-derived lymphoblasts; type: cell-based, human
[3] = P16, Fisher's exact test P-value = 0.0708

Compound: Nc1nc(N)c2c(OCC3CCN(Cc4c(Cl)cccc4Cl)CC3)cccc2n1 [RG3039]
- simultaneous pass rate, 55° negative geotaxis and climb test (2B/- SMA mice; 2B/- SMA mice at P16, combined sexes): about 78%
- improvement in ability to pass the combined assay over vehicle SMA mice (2B/- SMA mice; [3]): ~40%
- statistical significance of improvement over vehicle SMA mice in combined test (2B/- SMA mice; [3]): showed improvement over vehicle SMA mice that did not reach statistical significance
- effect on CMV-driven Renilla luciferase activity [1]: strong effect
- changes in SMN transcripts ([2]; active DAQ-DcpSi vs 7-methyl analogues): modest changes in SMN transcripts
- SMNΔ7 transcripts ([2]; example experiment of Fig 5): no decrease in SMNΔ7 transcripts
